The source made the active and inactive calls.
Assays:
[1] = activation of miR-122 Renilla sensor silencing – cell-based, Huh7 psiCHECK-miR122, Renilla luciferase, cherry-picked, dose response (AID 651956); type: functional;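 note: huh7 hepatoma cells stably carrying a psiCHECK-2 miR-122 sensor plasmid; renilla luciferase signal reporting endogenous miR-122 activity after 48 h compound exposure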
[2] = general mammalian cell viability loss – inhibitor set, cherry-pick, set 2, cytotoxicity control for miR-122 modulator project, dose response (AID 720697); type: functional, cell-based
[3] = general mammalian cell viability loss – activator set, cherry-pick, cytotoxicity control for miR-122 modulator project, dose response (AID 720690); type: functional, cell-based;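 note: HEK293T human cells scored for general mammalian cytotoxicity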
[4] = molecular target: T1, Botulinum neurotoxin type A (Clostridium botulinum (strain Hall / ATCC 3502 / NCTC 13319 / Type A), UniProt P0DPI1); experiment: High-throughput multiplex microsphere dose response for inhibitors of toxin protease, specifically Botulinum neurotoxin light chain A protease, compounds from Powder Set 01.; type: functional, Clostridium botulinum A str. ATCC 3502; conditions: read-out: EC50_MICROM
T1 sequence (P0DPI1 2-448 limits assumed): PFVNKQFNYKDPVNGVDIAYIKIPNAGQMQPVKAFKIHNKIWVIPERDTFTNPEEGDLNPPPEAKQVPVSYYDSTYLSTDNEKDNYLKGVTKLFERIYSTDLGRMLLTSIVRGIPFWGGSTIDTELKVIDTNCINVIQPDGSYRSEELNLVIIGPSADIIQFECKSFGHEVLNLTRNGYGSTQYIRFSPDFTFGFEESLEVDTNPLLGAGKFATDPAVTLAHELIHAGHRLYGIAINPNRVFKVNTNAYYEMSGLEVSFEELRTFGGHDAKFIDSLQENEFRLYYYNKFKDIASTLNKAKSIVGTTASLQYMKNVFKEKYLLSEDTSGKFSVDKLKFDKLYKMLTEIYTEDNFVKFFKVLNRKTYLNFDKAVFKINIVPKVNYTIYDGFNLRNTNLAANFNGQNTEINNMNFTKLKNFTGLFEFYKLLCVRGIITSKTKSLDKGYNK

[5] = molecular target: Botulinum neurotoxin type F (Clostridium botulinum, UniProt P30996); experiment: High-throughput multiplex microsphere dose response for inhibitors of toxin protease, specifically Botulinum neurotoxin light chain F protease, compounds from Powder Set 01.; type: functional, Clostridium botulinum Bf; conditions: read-out: EC50_MICROM
Sequence of Botulinum neurotoxin type F (P30996 1-436 limits assumed): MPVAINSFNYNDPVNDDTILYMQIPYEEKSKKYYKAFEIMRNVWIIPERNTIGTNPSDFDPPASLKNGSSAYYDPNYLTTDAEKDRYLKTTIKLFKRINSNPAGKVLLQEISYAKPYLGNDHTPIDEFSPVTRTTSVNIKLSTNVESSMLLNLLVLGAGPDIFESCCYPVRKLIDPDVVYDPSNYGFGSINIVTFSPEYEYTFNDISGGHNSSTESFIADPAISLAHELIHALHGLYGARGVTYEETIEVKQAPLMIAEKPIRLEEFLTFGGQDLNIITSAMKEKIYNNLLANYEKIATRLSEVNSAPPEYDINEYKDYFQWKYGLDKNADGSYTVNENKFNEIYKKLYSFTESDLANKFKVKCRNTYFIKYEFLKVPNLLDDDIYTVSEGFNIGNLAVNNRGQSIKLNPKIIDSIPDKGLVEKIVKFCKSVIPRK

Lethal factor = Lethal factor (Bacillus anthracis, UniProt P15917); experiment: High-throughput multiplex microsphere dose response for inhibitors of toxin protease, specifically Lethal Factor protease, compounds from Powder Set 01.; type: functional, Bacillus anthracis str. A2012; conditions: read-out: EC50_MICROM
Sequence of Lethal factor (P15917 whole entry): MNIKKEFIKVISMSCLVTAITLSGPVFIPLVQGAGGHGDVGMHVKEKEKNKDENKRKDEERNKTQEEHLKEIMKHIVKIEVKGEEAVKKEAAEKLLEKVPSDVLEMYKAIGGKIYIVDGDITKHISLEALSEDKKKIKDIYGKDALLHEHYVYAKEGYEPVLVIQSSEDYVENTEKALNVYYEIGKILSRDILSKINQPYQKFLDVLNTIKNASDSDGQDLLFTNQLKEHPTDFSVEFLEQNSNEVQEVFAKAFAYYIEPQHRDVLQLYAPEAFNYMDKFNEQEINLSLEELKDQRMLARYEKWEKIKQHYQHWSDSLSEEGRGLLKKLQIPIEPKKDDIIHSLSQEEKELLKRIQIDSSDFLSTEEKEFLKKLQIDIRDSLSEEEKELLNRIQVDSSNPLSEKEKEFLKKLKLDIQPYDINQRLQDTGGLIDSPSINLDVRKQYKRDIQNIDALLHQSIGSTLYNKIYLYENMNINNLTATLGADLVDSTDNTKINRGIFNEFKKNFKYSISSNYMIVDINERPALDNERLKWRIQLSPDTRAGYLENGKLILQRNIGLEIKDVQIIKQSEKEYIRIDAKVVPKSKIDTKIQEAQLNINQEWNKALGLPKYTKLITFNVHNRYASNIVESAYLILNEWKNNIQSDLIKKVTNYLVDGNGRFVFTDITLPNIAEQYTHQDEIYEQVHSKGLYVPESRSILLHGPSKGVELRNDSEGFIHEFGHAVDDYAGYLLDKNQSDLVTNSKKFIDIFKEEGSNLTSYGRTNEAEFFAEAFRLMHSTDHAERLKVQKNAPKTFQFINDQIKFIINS

[6] = molecular target: T1, Botulinum neurotoxin type A; experiment: Confirmatory FRET assay using full length substrates for Botulinum neurotoxin light chain A protease, with Powder Set01.; type: functional
HeLa = experiment: viability loss in HeLa cells – cell-based, ATP luminescence, cherry-pick samples, cytotoxicity control, dose response (AID 687004); type: functional; conditions: Homo sapiens
cells [7] = type: functional, cell-based
[8] = molecular target: T2, Trace amine-associated receptor 1 (Homo sapiens, UniProt Q96RJ0); experiment: Fluorescence-based cell-based high throughput dose response assay to identify agonists of the human trace amine associated receptor 1 (TAAR1).; type: functional
T2 sequence (Q96RJ0 whole entry): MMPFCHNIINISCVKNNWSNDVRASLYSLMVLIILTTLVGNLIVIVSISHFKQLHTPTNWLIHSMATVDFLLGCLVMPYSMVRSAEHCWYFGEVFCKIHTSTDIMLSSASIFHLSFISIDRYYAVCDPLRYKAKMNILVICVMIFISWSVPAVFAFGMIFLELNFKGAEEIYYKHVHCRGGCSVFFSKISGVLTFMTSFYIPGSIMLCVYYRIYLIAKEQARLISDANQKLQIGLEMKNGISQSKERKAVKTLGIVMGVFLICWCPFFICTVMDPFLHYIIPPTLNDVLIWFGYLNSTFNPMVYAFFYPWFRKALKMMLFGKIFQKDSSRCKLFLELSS

[9] = molecular target: T2, Trace amine-associated receptor 1; experiment: Counterscreen for agonists of the human trace amine associated receptor 1 (hTAAR1): Fluorescence-based cell-based high throughput dose response assay to identify hTAAR1 agonist that also desensitize TAAR1 receptor response.; type: functional
cells [10] = type: functional, cell-based; remark: listed apart in the source
Beta-lactamase [11] = molecular target: Beta-lactamase (Pseudomonas aeruginosa, UniProt Q79MP6);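 note: biochemical dose-response test of metallo-beta-lactamase enzyme inhibition, read out by epi-absorbance; purified recombinant IMP-1 metallo-beta-lactamase with nitrocefin as substrate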
Sequence of Beta-lactamase (Pseudomonas aeruginosa, UniProt Q79MP6) (Q79MP6 whole entry): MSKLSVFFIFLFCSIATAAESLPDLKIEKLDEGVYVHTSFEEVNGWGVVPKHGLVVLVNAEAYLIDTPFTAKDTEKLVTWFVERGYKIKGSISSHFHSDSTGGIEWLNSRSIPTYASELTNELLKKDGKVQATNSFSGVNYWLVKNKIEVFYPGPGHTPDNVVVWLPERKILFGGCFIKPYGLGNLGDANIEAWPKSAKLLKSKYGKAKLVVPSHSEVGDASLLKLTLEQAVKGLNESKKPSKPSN

Beta-lactamase [12] = molecular target: Beta-lactamase (Salmonella choleraesuis (strain SC-B67), UniProt Q5J463)
Sequence of Beta-lactamase (Salmonella choleraesuis (strain SC-B67), UniProt Q5J463) (Q5J463 whole entry): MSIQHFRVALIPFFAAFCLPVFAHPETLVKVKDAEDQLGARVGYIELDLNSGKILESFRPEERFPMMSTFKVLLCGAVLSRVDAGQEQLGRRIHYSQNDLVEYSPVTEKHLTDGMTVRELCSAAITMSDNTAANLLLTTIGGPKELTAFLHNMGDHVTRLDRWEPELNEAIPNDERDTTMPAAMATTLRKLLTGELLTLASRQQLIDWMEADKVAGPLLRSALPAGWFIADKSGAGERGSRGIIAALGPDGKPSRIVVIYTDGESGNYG

Protein Wnt-3a = Protein Wnt-3a (Mus musculus, UniProt P27467); experiment: SAR analysis of small molecule antagonists of Gli-SUFU in a Wnt3a luminescent reporter assay.; type: functional
Sequence of Protein Wnt-3a (P27467 whole entry): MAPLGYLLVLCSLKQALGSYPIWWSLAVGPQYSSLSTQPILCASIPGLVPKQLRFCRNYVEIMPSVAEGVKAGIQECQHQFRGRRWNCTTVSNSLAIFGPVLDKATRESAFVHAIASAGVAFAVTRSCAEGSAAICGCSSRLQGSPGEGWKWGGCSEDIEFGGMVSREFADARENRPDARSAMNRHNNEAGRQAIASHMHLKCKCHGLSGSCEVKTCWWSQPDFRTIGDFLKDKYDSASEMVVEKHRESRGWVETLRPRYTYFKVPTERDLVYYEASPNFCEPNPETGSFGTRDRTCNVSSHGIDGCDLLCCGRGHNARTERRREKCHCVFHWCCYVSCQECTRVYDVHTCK

Mu-type opioid receptor = Mu-type opioid receptor (Homo sapiens, UniProt P35372); type: functional, cell-based;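 note: U2OS cells with beta-arrestin recruitment to OPRM1 by beta-gal complementation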
[13] = molecular target: 5-hydroxytryptamine receptor 2A (Mus musculus, UniProt P35363); type: functional, cell-based;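 note: CHO-K1 cells with tagged receptor and beta-arrestin; agonist potency measured as compound-induced activation of the receptor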
Sequence of 5-hydroxytryptamine receptor 2A (P35363 whole entry): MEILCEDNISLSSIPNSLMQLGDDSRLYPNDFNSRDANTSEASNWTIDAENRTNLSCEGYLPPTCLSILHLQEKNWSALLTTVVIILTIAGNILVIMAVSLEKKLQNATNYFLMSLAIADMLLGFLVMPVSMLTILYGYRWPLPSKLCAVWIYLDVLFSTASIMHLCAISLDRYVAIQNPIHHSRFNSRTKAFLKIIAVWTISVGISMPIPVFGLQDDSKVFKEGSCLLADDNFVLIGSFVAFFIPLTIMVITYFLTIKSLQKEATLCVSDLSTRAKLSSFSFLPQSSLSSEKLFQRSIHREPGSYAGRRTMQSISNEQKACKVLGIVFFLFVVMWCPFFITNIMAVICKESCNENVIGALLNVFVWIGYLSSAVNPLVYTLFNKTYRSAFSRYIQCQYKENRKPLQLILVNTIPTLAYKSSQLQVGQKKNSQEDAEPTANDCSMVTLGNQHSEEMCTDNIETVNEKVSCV

[14] = molecular target: T3, Replicative DNA helicase DnaB (Mycobacterium tuberculosis, UniProt P9WMR3); experiment: DnaB intein splicing inhibitors, dose response, biochemical, cell-free fluorescence (AID 449749); type: functional
T3 sequence (P9WMR3 whole entry): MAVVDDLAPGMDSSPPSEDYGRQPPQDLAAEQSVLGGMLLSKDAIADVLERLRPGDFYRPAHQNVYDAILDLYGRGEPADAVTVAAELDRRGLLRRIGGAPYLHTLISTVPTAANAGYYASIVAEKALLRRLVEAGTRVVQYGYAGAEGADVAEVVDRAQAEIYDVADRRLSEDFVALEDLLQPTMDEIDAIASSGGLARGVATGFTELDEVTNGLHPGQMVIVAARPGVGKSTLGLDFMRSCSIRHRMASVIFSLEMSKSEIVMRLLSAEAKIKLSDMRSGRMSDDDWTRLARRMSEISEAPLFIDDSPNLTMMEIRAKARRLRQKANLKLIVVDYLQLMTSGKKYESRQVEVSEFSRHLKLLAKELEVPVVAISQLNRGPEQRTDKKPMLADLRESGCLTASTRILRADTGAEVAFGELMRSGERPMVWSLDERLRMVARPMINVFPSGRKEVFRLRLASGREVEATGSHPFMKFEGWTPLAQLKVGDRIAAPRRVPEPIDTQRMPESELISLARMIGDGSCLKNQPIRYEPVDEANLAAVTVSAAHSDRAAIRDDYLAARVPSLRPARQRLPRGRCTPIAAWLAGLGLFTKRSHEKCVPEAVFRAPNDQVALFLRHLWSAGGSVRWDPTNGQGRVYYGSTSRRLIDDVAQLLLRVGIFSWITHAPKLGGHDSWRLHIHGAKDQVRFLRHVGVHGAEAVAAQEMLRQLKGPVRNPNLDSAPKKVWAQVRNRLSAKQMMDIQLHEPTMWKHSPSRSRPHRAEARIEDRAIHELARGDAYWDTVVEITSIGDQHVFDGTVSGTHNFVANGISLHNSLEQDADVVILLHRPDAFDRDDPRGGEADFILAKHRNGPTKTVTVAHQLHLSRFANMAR

Protein RecA = molecular target: T4, Protein RecA (Mycobacterium tuberculosis, UniProt P9WHJ3); experiment: Fluorescence Cell-Free Homogeneous Dose Retest to Identify Inhibitors of RecA-Intein Splicing Activity. [Related pubchem assays (depositor defined):AID2097, AID2223, AID489010, AID492950]; type: functional
T4 sequence (P9WHJ3 whole entry): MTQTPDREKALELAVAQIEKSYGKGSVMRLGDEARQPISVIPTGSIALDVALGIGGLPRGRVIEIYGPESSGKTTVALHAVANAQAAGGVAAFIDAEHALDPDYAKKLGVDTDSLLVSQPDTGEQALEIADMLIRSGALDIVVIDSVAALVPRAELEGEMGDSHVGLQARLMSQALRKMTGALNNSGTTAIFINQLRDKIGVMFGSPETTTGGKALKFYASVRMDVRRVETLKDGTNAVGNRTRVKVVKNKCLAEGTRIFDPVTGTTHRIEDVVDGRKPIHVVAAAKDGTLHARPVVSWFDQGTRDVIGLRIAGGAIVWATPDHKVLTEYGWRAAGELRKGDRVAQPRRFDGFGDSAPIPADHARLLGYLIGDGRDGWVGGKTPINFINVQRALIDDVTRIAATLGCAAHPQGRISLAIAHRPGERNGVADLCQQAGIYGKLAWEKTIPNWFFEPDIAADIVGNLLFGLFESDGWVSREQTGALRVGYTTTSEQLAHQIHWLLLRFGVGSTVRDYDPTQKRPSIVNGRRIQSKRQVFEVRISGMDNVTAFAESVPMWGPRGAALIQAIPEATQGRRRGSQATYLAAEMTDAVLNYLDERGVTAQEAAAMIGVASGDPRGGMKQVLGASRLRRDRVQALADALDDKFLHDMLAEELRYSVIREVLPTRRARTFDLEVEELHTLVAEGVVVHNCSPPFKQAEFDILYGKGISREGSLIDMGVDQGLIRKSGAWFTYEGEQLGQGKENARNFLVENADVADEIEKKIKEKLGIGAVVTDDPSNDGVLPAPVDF

[15] = molecular target: T5, Sentrin-specific protease 8 (Homo sapiens, UniProt Q96LD8); type: functional
T5 sequence (Q96LD8 whole entry): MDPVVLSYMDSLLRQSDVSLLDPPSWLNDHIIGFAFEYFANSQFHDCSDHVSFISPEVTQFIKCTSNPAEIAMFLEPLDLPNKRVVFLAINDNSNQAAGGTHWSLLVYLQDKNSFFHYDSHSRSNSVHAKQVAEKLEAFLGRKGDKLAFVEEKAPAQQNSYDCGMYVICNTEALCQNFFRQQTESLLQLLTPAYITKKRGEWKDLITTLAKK

[16] = molecular target: T5, Sentrin-specific protease 8; type: functional; remark: listed apart in the source
[17] = molecular target: T6, Methionyl-tRNA synthetase, putative (Trypanosoma brucei brucei, UniProt Q38C91); type: functional, Trypanosoma brucei brucei strain 927/4 GUTat10.1
T6 sequence (Q38C91 whole entry): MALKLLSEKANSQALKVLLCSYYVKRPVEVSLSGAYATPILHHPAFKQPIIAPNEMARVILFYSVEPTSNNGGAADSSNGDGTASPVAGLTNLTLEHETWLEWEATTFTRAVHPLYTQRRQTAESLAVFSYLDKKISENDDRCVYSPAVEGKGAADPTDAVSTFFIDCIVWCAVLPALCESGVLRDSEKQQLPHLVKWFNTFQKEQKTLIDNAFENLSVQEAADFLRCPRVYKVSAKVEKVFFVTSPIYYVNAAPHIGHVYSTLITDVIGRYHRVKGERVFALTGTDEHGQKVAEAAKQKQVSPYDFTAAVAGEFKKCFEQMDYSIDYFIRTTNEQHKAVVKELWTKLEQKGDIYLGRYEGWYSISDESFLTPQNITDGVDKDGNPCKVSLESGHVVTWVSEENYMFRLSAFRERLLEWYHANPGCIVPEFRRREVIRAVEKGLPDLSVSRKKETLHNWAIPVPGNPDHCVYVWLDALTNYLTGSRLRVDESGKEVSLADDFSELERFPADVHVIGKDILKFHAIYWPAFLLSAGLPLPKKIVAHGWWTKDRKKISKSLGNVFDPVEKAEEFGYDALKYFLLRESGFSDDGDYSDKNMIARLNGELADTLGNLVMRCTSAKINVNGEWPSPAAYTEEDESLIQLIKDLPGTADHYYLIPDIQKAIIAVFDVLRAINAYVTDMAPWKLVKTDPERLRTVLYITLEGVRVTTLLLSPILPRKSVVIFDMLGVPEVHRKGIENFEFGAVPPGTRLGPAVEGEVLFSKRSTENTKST

[18] = Counterscreen for inhibitors of Trypanosoma brucei methionyl tRNA synthetase (MetRS): Luminescence-based cell-based high throughput dose response assay to identify compounds that are cytotoxic to Jurkat human T lymphocyte cells.; type: functional
[19] = molecular target: T6, Methionyl-tRNA synthetase, putative; type: functional, Trypanosoma brucei brucei strain 927/4 GUTat10.1; remark: listed apart in the source
[20] = molecular target: T7, RNA-binding protein pos-1 (Caenorhabditis elegans, UniProt G5EF15); experiment: disruptors of C. elegans POS-1 RNA interaction – biochemical, fluorescence polarization, dose response (AID 1964);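 note: purified POS-1 fused to maltose binding protein made in E. coli; potency of compounds blocking POS-1 binding to fluorescent RNA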
T7 sequence (G5EF15 whole entry): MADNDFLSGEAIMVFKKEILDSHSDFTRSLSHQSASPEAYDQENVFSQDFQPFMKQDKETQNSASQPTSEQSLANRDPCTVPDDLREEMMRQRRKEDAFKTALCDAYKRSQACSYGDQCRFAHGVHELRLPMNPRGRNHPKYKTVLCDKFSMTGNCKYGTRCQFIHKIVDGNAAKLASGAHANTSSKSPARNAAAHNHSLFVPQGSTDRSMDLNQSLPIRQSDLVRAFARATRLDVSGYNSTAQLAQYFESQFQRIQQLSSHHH

[21] = molecular target: T8, Zinc finger protein mex-5 (Caenorhabditis elegans, UniProt Q9XUB2); experiment: potency of MEX-5 RNA-binding blockers – biochemical, C. elegans, fluorescence polarization, dose response (AID 1960)
T8 sequence (Q9XUB2 whole entry): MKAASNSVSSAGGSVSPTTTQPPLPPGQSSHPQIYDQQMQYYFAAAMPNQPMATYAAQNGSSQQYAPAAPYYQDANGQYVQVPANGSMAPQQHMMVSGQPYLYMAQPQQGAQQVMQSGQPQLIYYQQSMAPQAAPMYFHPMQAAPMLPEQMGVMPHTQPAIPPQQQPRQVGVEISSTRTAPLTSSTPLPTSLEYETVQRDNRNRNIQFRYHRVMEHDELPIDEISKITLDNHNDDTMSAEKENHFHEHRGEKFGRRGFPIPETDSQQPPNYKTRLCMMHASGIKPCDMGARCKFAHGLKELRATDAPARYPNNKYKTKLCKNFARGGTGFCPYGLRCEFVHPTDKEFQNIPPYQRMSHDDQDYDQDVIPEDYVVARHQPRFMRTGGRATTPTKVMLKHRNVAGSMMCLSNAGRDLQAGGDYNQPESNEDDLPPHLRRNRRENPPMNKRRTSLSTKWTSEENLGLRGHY

[22] = molecular target: Long-chain-fatty-acid--AMP ligase FadD28 (Mycobacterium tuberculosis, UniProt P9WQ59); experiment: Fluorescence polarization aasay to screen for inhibitors that compete for the binding of FadD28 to a bisubstrate Measured in Biochemical System Using Plate Reader - 2147-01_Inhibitor_Dose_CherryPick_Activity.; type: functional, Mycobacterium tuberculosis H37Rv
Sequence of Long-chain-fatty-acid--AMP ligase FadD28 (P9WQ59 whole entry): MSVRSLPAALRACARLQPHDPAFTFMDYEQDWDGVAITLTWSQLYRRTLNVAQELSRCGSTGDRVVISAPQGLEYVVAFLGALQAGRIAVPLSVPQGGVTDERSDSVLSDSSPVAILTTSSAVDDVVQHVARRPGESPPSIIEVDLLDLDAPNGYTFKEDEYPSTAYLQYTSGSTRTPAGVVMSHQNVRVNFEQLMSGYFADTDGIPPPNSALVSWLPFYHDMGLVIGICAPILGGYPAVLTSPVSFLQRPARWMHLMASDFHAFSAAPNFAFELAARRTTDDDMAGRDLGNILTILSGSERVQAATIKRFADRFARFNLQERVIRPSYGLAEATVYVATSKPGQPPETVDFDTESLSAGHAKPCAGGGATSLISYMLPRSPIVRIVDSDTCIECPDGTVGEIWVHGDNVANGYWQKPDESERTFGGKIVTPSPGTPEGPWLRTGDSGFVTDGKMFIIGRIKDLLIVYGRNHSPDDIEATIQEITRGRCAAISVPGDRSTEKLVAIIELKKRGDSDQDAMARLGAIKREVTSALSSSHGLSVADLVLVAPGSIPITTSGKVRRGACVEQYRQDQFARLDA

[23] = molecular target: T9, Rac GTPase-activating protein 1 (Homo sapiens, UniProt Q9H0H5); experiment: blockers of MgcRacGAP-driven Rac1 GTP hydrolysis – biochemical, ADP Hunter fluorescence, primary and confirmatory, confirmation (AID 624330); type: functional
T9 sequence (Q9H0H5 whole entry): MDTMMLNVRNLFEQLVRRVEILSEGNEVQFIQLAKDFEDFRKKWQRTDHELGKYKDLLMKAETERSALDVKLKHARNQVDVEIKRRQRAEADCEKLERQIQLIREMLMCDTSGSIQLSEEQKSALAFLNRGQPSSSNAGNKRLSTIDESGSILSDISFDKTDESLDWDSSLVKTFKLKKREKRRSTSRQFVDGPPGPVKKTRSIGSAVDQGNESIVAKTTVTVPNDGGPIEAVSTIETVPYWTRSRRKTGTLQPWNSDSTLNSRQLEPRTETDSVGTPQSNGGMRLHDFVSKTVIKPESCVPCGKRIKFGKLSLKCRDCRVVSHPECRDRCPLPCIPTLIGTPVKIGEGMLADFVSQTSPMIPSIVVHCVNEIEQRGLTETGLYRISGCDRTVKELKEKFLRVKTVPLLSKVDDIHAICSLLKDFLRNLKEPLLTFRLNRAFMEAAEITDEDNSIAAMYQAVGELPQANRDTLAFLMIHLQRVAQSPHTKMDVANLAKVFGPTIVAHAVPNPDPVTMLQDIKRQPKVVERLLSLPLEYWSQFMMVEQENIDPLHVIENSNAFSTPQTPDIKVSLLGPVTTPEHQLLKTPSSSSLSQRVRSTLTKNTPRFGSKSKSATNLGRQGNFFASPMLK

C[C@@H]1CN([C@@H](C)CO)C(=O)Cc2cc(NC(=O)c3ccncc3)ccc2O[C@H]1CN(C)Cc1ccc(-c2ccccc2)cc1
AC50 [1]: 4.94 µM (active)
AC50 [2]: 15.9 µM (active)
AC50 [3]: 23.6 µM (active)

Clc1ccc(-c2cn3nc(-c4ccccc4)c(-c4ccccc4)nc3n2)cc1
EC50 [4]: 1 µM (active)
EC50 [5]: 7.4 µM (active)
EC50 (Lethal factor): 1.6 µM (active)
EC50 [6]: 2.4 µM (active)

C[C@@H]1CN([C@@H](C)CO)C(=O)c2cc(NS(=O)(=O)c3cn(C)cn3)ccc2O[C@@H](C)CCCCO[C@@H]1CN(C)Cc1ccc(C(F)(F)F)cc1
AC50 (HeLa): 13 µM (active)

O=C(C(=O)N1CCc2ccccc2C1)c1cn(CC(=O)N2CCCCC2)c2ccccc12
IC50 (cells [7]): > 29.9 µM (inactive)
EC50 [8]: 0.879 µM (active)
IC50 [9]: 3.57 µM (active)
EC50 (cells [10]): > 29.9 µM (inactive)

COc1ccc(-c2occ(C(=O)O)c2C(=O)O)cc1
IC50 (Beta-lactamase [11]): 23.5 µM (inactive)
IC50 (Beta-lactamase [12]): > 59.6 µM (inactive)

CC(C)Nc1cc(NC(=O)c2ccccc2)ncn1
IC50 (Protein Wnt-3a): > 21.8 µM (inactive)

Clc1ccc(CN2CCN(c3ncccn3)CC2)cc1
EC50 (Mu-type opioid receptor): 92.5 µM (inactive)
EC50 [13]: 0.153 µM (active)

COC(=O)CCCC1=CC2=C(c3ccccc3)C(=O)C(C)(OC(=O)C3CCCC3)C(=O)C2=CN1CCCCO (stereo not drawn)
AC50 [14]: 68.9 µM (active)
EC50 (Protein RecA): 18.4 µM (active)
IC50 [15]: 6.43 µM (active)
IC50 [16]: 2.93 µM (active)

O=C(Nc1ccccc1)Nc1nnc(CSCc2ccccc2Cl)s1
IC50 [17]: 46.7 µM (inactive)
IC50 [18]: 27.7 µM (inactive)
IC50 [19]: 6.26 µM (active)

O=C(CNS(=O)(=O)c1ccc([N+](=O)[O-])cc1)N/N=C/c1ccc(O)cc1O
EC50 [20]: 8.98 µM (active)
EC50 [21]: 8.33 µM (active)
AC50 [22]: 9.67 µM (active)
IC50 [23]: 128 µM (active)
